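Test compounds were applied to cells in 96-well plates for 48 hours at 5 doses. At the TGI there is no net growth.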
How the values were obtained:
Test in all cases: growth of human tumour cells (NCI), 48 h
OVCAR-4 ovarian = system: OVCAR-4 ovarian
RXF 393 renal = system: RXF 393 renal
SF-539 CNS = system: SF-539 CNS
NCI-H23 lung = system: NCI-H23 lung
A549 NSCLC = system: A549 NSCLC
KM12 colon = system: KM12 colon
SF-268 CNS = system: SF-268 CNS
HCT-116 colon = system: HCT-116 colon
ACHN renal = system: ACHN renal
CCRF-CEM leukemia = system: CCRF-CEM leukemia
MALME-3M melanoma = system: MALME-3M melanoma
SK-MEL-2 melanoma = system: SK-MEL-2 melanoma
HS 578T breast = system: HS 578T breast
HT29 colon = system: HT29 colon
SK-MEL-5 melanoma = system: SK-MEL-5 melanoma
SW-620 colon = system: SW-620 colon
SK-OV-3 ovarian = system: SK-OV-3 ovarian
UO-31 renal = system: UO-31 renal
OVCAR-5 ovarian = system: OVCAR-5 ovarian
786-0 renal = system: 786-0 renal
TK-10 renal = system: TK-10 renal
A498 renal = system: A498 renal
HOP-62 NSCLC = system: HOP-62 NSCLC
MDA-N = system: MDA-N
UACC-62 melanoma = system: UACC-62 melanoma
MDA-MB-435 = system: MDA-MB-435
SNB-75 CNS = system: SNB-75 CNS
EKVX NSCLC = system: EKVX NSCLC
CAKI-1 renal = system: CAKI-1 renal
T-47D breast = system: T-47D breast
UACC-257 melanoma = system: UACC-257 melanoma
RPMI-8226 leukemia = system: RPMI-8226 leukemia
HOP-92 NSCLC = system: HOP-92 NSCLC
PC-3 prostate = system: PC-3 prostate
SK-MEL-28 melanoma = system: SK-MEL-28 melanoma
COLO 205 colon = system: COLO 205 colon
NCI/ADR-RES ovarian = system: NCI/ADR-RES ovarian
SN12C renal = system: SN12C renal

Compound: NC(N)=N/N=C/c1c(-c2ccc([N+](=O)[O-])cc2)nc2sc(Cl)cn12
- TGI (OVCAR-4 ovarian): 954 nM
- TGI (RXF 393 renal): 3.8 µM
- TGI (SF-539 CNS): 4.01 µM
- TGI (NCI-H23 lung): 2690 nM
- TGI (A549 NSCLC): 3.09 µM
- TGI (KM12 colon): 2400 nM
- TGI (SF-268 CNS): 3.31 µM
- TGI (HCT-116 colon): 575 nM
- TGI (ACHN renal): 2420 nM
- TGI (CCRF-CEM leukemia): 1140 nM
- TGI (MALME-3M melanoma): 3.63 µM
- TGI (SK-MEL-2 melanoma): 3.2 µM
- TGI (HS 578T breast): > 100 µM
- TGI (HT29 colon): 3 µM
- TGI (SK-MEL-5 melanoma): 3.6 µM
- TGI (SW-620 colon): 1460 nM
- TGI (SK-OV-3 ovarian): 3.31 µM
- TGI (UO-31 renal): 2680 nM
- TGI (OVCAR-5 ovarian): 2690 nM
- TGI (786-0 renal): 605 nM
- TGI (TK-10 renal): 3.69 µM
- TGI (A498 renal): 2770 nM
- TGI (HOP-62 NSCLC): 3.11 µM
- TGI (MDA-N): 3.12 µM
- TGI (UACC-62 melanoma): 3.01 µM
- TGI (MDA-MB-435): 2330 nM
- TGI (SNB-75 CNS): 1300 nM
- TGI (EKVX NSCLC): 1530 nM
- TGI (CAKI-1 renal): 3.76 µM
- TGI (T-47D breast): > 100 µM
- TGI (UACC-257 melanoma): 1410 nM
- TGI (RPMI-8226 leukemia): 4 µM
- TGI (HOP-92 NSCLC): 4.05 µM
- TGI (PC-3 prostate): 2040 nM
- TGI (SK-MEL-28 melanoma): 3.38 µM
- TGI (COLO 205 colon): 2060 nM
- TGI (NCI/ADR-RES ovarian): 3.45 µM
- TGI (SN12C renal): 3.05 µM
